Data from ChEMBL document CHEMBL6078665, “Structural optimization of naturally derived Ar-turmerone, as novel neuroinflammation suppressors effective in an Alzheimer mouse model” (Bioorg Med Chem, 2025).
Activity calls are given as the source filed them. The rule behind the calls is not given here.

What was measured:
[1] = (§1) Cytotoxicity against LPS-induced mouse BV-2 cells assessed as cell survival at 80 uM measured after 24 hrs incubation by MTT assay; assay type: toxicity, cell-based; conditions: LPS-induced BV-2 cells, read-out: Survival
BV-2 [2] = experiment: Anti-inflammatory activity against LPS-induced mouse BV-2 cells assessed as inhibition rate of LPS-induced […] production at 80 uM pretreated for 1 hr followed by challenged with LPS and measured after 24 hrs incubation by Griess assay; assay type: functional; conditions: time 25 hrs
BV-2 [3] = experiment: Anti-inflammatory activity against LPS-induced mouse BV-2 cells assessed as inhibition rate of LPS-induced NO production pretreated for 1 hr followed by challenged with LPS and measured after 24 hrs incubation by Griess assay; assay type: functional, cell-based
Mus musculus [4] = experiment: Anti-neuroinflammatory activity against LPS-induced C57BL/6 mouse model assessed as reversal of LPS-induced TNFalpha increase in hippocampal homogenate at 100 mg/kg, po measured up to 5 days by ELISA kit; assay type: functional, organism-based; conditions: time <= 5.0 day
BV-2 [5] = experiment: Anti-inflammatory activity against LPS-induced mouse BV-2 cells assessed as inhibition rate of LPS-induced TNFalpha production pretreated for 1 hr followed by challenged with LPS and measured after 24 hrs incubation by ELISA assay; assay type: functional, cell-based
Mus musculus [6] = experiment: Anti-neuroinflammatory activity against LPS-induced C57BL/6 mouse model assessed as reversal of LPS-induced IL-1 beta increase in hippocampal homogenate at 100 mg/kg, po measured up to 5 days by ELISA kit; assay type: functional, organism-based; conditions: time <= 5.0 day
Mus musculus [7] = experiment: Anti-neuroinflammatory activity against LPS-induced spatial learning in C57BL/6 mouse model assessed as swimming pathway at 100 mg/kg, po measured up to 5 days by Morris water maze test; assay type: functional, organism-based; conditions: time <= 5.0 day
Mus musculus [8] = experiment: Anti-neuroinflammatory activity against LPS-induced C57BL/6 mouse model assessed as reversal of LPS-induced IL-1 beta increase in cortex at 100 mg/kg, po measured up to 5 days by ELISA kit; assay type: functional, organism-based; conditions: time <= 5.0 day
Mus musculus [9] = experiment: Anti-neuroinflammatory activity against LPS-induced spatial learning loss in C57BL/6 mouse model assessed as shortening of escape latency at 100 mg/kg, po measured up to 5 days by Morris water maze test; assay type: functional, organism-based; conditions: time <= 5.0 day
Mus musculus [10] = experiment: Anti-neuroinflammatory activity against LPS-induced C57BL/6 mouse model assessed as reversal of LPS-induced TNFalpha increase in cortex at 100 mg/kg, po measured up to 5 days by ELISA kit; assay type: functional, organism-based; conditions: time <= 5.0 day
BV-2 [11] = experiment: Anti-inflammatory activity against LPS-induced mouse BV-2 cells assessed as inhibition rate of LPS-induced IL-1beta production pretreated for 1 hr followed by challenged with LPS and measured after 24 hrs incubation by ELISA assay; assay type: functional, cell-based
BV-2 [12] = experiment: as §1; assay type: toxicity, cell-based; conditions: bv-2, 24 h, 80 µM
Mus musculus [13] = experiment: Anti-neuroinflammatory activity against LPS-induced reference memory loss in C57BL/6 mouse model assessed as increase in time spent in target quadrant at 100 mg/kg, po measured up to 5 days by reference memory (probe trial) test; assay type: functional, organism-based; conditions: time <= 5.0 day
Mus musculus [14] = experiment: Anti-neuroinflammatory activity against LPS-induced reference memory loss in C57BL/6 mouse model assessed as increase in number of times cross the target quadrant at 100 mg/kg, po measured up to 5 days by reference memory (probe trial) test; assay type: functional, organism-based; conditions: time <= 5.0 day
Mus musculus [15] = experiment: Anti-neuroinflammatory activity against LPS-induced neuronal damage C57BL/6 mouse model assessed as restoration of number of normal neuronal cells in hippocampus at 100 mg/kg, po measured up to 5 days by Nissl staining based assay; assay type: functional, organism-based; conditions: time <= 5.0 day
Mus musculus [16] = experiment: Anti-neuroinflammatory activity against LPS-induced neuronal damage C57BL/6 mouse model assessed as restoration of number of normal neuronal cells in cortex at 100 mg/kg, po measured up to 5 days by Nissl staining based assay; assay type: functional, organism-based; conditions: time <= 5.0 day

Row | Compound | viability at 24 h, 80 µM [1] [%] | inhibition at 80 µM (BV-2 [2]) [%] | IC50 (BV-2 [3]) [µM] | IC50 (BV-2 [5]) [µM] | IC50 (BV-2 [11]) [µM] | further results
1 | CC(C)=CC(=O)NC(C)c1ccc(C(F)(F)F)cc1 (centres undefined) | > 80 | 28 |  |  |  | 
2 | CC(C)=CC(=O)CC(c1ccc(F)cc1)c1ccc(C(F)(F)F)cc1 (centres undefined) | > 80 | 19.1 |  |  |  | 
3 | CC(C)=CC(=O)NC(C)c1ccc(Cl)cc1 (centres undefined) | > 80 | 38 |  |  |  | 
4 | CC(C)=CC(=O)NC(C)c1ccc(C)cc1 (centres undefined) | > 80 | 79.8 | 17.3 | 27.5 | 14 | Activity (Mus musculus [4]): Active; Activity (Mus musculus [6]): Active; Activity (Mus musculus [7]): Active; Activity (Mus musculus [8]): Active; Activity (Mus musculus [9]): Active; Activity (Mus musculus [10]): Active
5 | CC(C)=CC(=O)CC(C)c1ccc(C)cc1 (racemic) | > 80 | 81.5 | 30.2 | 42.5 | 19.7 | 
6 | CC(C)=CC(=O)NC(c1ccccc1)c1ccc(C)cc1 (centres undefined) | > 80 | 71 | 30.4 | 50.3 | 54.1 | Activity (Mus musculus [4]): Active; Compound Exhibited Superior Effect Compared To Ar-Turmerone; Activity (Mus musculus [6]): Active; Compound Exhibited Superior Effect Compared To Ar-Turmerone; Activity (Mus musculus [7]): Active; Activity (Mus musculus [9]): Active
7 | CC(C)=CC(=O)CC(C)c1ccccc1Cl (centres undefined) | > 80 | 47.7 |  |  |  | 
8 | CC(C)=CC(=O)OC(C)c1ccc(C)cc1 (centres undefined) | > 80 | 64.5 | 42.5 | 28.5 | 34 | Activity (Mus musculus [4]): Active; Activity (Mus musculus [6]): Active; Activity (Mus musculus [7]): Active; Activity (Mus musculus [9]): Active
9 | CCCc1ccc(CNC(=O)C=C(C)C)cc1 | > 80 | 59.8 | 49.4 | 53.6 | 43.9 | 
10 | CC(C)=CC(=O)OC(C)c1ccc(C(F)(F)F)cc1 (centres undefined) | > 80 | 28.2 |  |  |  | 
11 | CC(C)=CC(=O)OC(C)c1ccccc1 (centres undefined) |  | 24.9 |  |  |  | 
12 | CC(C)=CC(=O)CC(c1ccc(-c2ccccc2)cc1)C(C)C (centres undefined) |  | 69.7 | 26.6 | 51.4 | 56.2 | Activity (BV-2 [12]): Non-toxic
13 | CC(C)=CC(=O)CC(c1ccc(C)cc1)C(C)C (centres undefined) | > 80 | 71 | 30.9 | 46.5 | 42.4 | 
14 | CC(C)=CC(=O)CC(c1ccc(C)cc1)c1ccc(F)cc1 (centres undefined) | > 80 | 8.15 |  |  |  | 
15 | CC(C)=CC(=O)CC(c1ccc(F)cc1)c1ccc(-c2ccccc2)cc1 (centres undefined) |  | 29.3 |  |  |  | Activity (BV-2 [12]): Non-toxic
16 | CC(C)=CC(=O)NC(C)c1ccccc1 (centres undefined) |  | 22.3 |  |  |  | 
17 | CCCCc1nc(-c2ccc(OCCCN(CC)CC)cc2)cn1-c1ccc(Oc2ccc(Cl)cc2)cc1 |  |  |  |  |  | Activity (Mus musculus [13]): Active; Activity (Mus musculus [4]): Active; Activity (Mus musculus [6]): Active; Activity (Mus musculus [14]): Active
18 | CC(C)=CC(=O)C[C@H](C)c1ccc(C)cc1 | > 80 |  | 25.4 | 39.9 | 18.5 | Activity (Mus musculus [4]): Active; Activity (Mus musculus [6]): Active; Activity (Mus musculus [15]): Active; Activity (Mus musculus [16]): Active
19 | CC(C)=CC(=O)NC(C)c1ccc2ccccc2c1 (centres undefined) | > 80 | 60.1 | 44.2 | 24.5 | 32.5 | Activity (Mus musculus [13]): Active; Activity (Mus musculus [4]): Active; Activity (Mus musculus [6]): Active; Activity (Mus musculus [14]): Active; Activity (Mus musculus [15]): Active; Compound Exhibited Superior Effect Compared To Ar-Turmerone And Ttp488; Activity (Mus musculus [7]): Active; Activity (Mus musculus [8]): Active; Activity (Mus musculus [9]): Active; Activity (Mus musculus [10]): Active; Activity (Mus musculus [16]): Active; Compound Exhibited Superior Effect Compared To Ar-Turmerone And Ttp488
20 | CC(C)=CC(=O)CC(C)c1ccc(-c2ccccc2)cc1 (centres undefined) |  | 18.9 |  |  |  | Activity (BV-2 [12]): Non-toxic
21 | CC(C)=CC(=O)OC(C)c1ccc(-c2ccccc2)cc1 (centres undefined) | > 80 | 44.5 |  |  |  | 
22 | CC(C)=CC(=O)OC(C)c1ccc(Cl)cc1 (centres undefined) | > 80 | 15.8 |  |  |  | 
23 | CC(C)=CC(=O)CC(C)c1ccc(C(F)(F)F)cc1 (centres undefined) | > 80 | 26.8 |  |  |  | 
24 | CC(C)=CC(=O)NC(C)c1ccc(-c2ccccc2)cc1 (centres undefined) |  | 16.9 |  |  |  | Activity (BV-2 [12]): Non-toxic
25 | CC(C)=CC(=O)C[C@@H](C)c1ccc(C)cc1 |  |  | 29.1 | 40.9 | 23.1 | 
26 | CC(C)=CC(=O)OC(C)c1ccc2ccccc2c1 (centres undefined) | > 80 | 7.97 |  |  |  | 
27 | CCCC(OC(=O)C=C(C)C)c1ccc(-c2ccccc2)cc1 (centres undefined) | > 80 | 14.9 |  |  |  | 
